# Test results: PMC3625477 (Journal of acquired immune deficiency syndromes (1999), 2013)
# Several values for one entry are separate records, joined by “and”; a condition that tells them apart may be missing. Equal values may be shown once. Read-outs that look alike come from different tables or passages of the source.
# Columns and labels:
# Total = assay type: in vivo, HIV-infected pregnant women; settings: for concentration at 12 h / AUC(0-t) / Cmax: plasma; for concentration at 12 h: oral, C12h; for AUC(0-t) / Cmax: po; for AUC(0-t): AUC0–12h
# [1] = assay type: in vivo, HIV-infected pregnant women; settings: for concentration at 12 h / AUC(0-t) / Cmax: female, human, plasma; for concentration at 12 h: oral, C12h; for concentration at 12 h / AUC(0-t) / Cmax / C12h / Cl: protein unbound, median; for AUC(0-t) / Cmax: po; for AUC(0-t): AUC0–12h
# wild type virus (HIV) = settings: unbound lopinavir; cited from earlier work
# wild-type virus = settings: total lopinavir; cited from earlier work
# [2] = system: blood plasma proteins albumin and alpha-1-acid-glycoprotein (AAG); settings: cited from earlier work
# [3] = 8 wks postpartum (PK4), LPV/RTV 400mg/100mg twice daily
# [4] = 20–24 wks (PK1), LPV/RTV 400mg/100mg twice daily
# [5] = 30 wks (PK2), LPV/RTV 400mg/100mg twice daily
# [6] = 32 wks (PK3), LPV/RTV 500mg/125mg twice daily
# [7] = female, human, total (bound + unbound), 8 wks postpartum (PK4), LPV/RTV 400mg/100mg twice daily, median
# [8] = female, human, total (bound + unbound), 20–24 wks (PK1), LPV/RTV 400mg/100mg twice daily, median
# [9] = female, human, total (bound + unbound), 30 wks (PK2), LPV/RTV 400mg/100mg twice daily, median
# [10] = female, human, total (bound + unbound), 32 wks (PK3), LPV/RTV 500mg/125mg twice daily, median
# [11] = total (bound + unbound), 8 wks postpartum (PK4), LPV/RTV 400mg/100mg twice daily, median
# [12] = total (bound + unbound), 20–24 wks (PK1), LPV/RTV 400mg/100mg twice daily, median
# [13] = total (bound + unbound), 30 wks (PK2), LPV/RTV 400mg/100mg twice daily, median
# [14] = total (bound + unbound), 32 wks (PK3), LPV/RTV 500mg/125mg twice daily, median
smiles,measurement,setting,value
"Cc1cccc(C)c1OCC(=O)N[C@@H](Cc1ccccc1)[C@@H](O)C[C@H](Cc1ccccc1)NC(=O)[C@H](C(C)C)N1CCCNC1=O [Lopinavir, lopinavir]",postpartum total C12h higher than at any point during pregnancy,"Total; female, human, in vivo, 12 h",38–80%
same,women with total lopinavir C12h below 4 µg/mL,"Total; second trimester, standard-dose LPV/RTV, 12 participants",33%
same,increase in protein-unbound AUC0–12h with the increased dose,[1]; PK2 vs PK3,< 15%
same,share of all unbound concentrations below the wild type IC50 of 0.00064 µg/mL,[1]; all visits,Less than 2%
same,concentration at 12 h,[1]; [3],160 ng/mL
same,concentration at 12 h,[1]; [4],150 ng/mL
same,concentration at 12 h,[1]; [5],100 ng/mL
same,concentration at 12 h,[1]; [6],120 ng/mL
same,AUC(0-t),[1]; [3],2600 ng·h/mL
same,AUC(0-t),[1]; [4],1600 ng·h/mL
same,AUC(0-t),[1]; [5],1600 ng·h/mL
same,AUC(0-t),[1]; [6],1800 ng·h/mL
same,Cmax,[1]; [3],280 ng/mL
same,Cmax,[1]; [4],180 ng/mL
same,Cmax,[1]; [5],210 ng/mL
same,Cmax,[1]; [6],240 ng/mL
same,C12h,[1]; [3],160 ng/mL
same,Cl,[1]; [3],92 L/h
same,C12h,[1]; [4],150 ng/mL
same,Cl,[1]; [4],123 L/h
same,C12h,[1]; [5],100 ng/mL
same,Cl,[1]; [5],155 L/h
same,C12h,[1]; [6],120 ng/mL
same,Cl,[1]; [6],131 L/h
same,protein-unbound IC50 (50% inhibitory concentration),wild type virus (HIV),0.64 ng/mL and 0.64 to 0.77 ng/mL
same,minimum effective concentration,wild-type virus,1 µg/mL
"CC(C)c1nc(CN(C)C(=O)N[C@H](C(=O)N[C@@H](Cc2ccccc2)C[C@H](O)[C@H](Cc2ccccc2)NC(=O)OCc2cncs2)C(C)C)cs1 [Ritonavir, ritonavir]",concentration at 12 h,Total; [7],280 ng/mL
same,concentration at 12 h,Total; [8],120 ng/mL
same,concentration at 12 h,Total; [9],120 ng/mL
same,concentration at 12 h,Total; [10],150 ng/mL
same,AUC(0-t),Total; [8],2500 ng·h/mL
same,AUC(0-t),Total; [9],2300 ng·h/mL
same,AUC(0-t),Total; [10],2400 ng·h/mL
same,Cmax,Total; [7],620 ng/mL
same,Cmax,Total; [8],350 ng/mL
same,Cmax,Total; [9],300 ng/mL
same,Cmax,Total; [10],360 ng/mL
same,AUC0–12h,Total; [11],5200 ng·h/mL
same,C12h,Total; [11],280 ng/mL
same,Cl (apparent oral clearance),Total; [11],12 L/h
same,C12h,Total; [12],120 ng/mL
same,Cl (apparent oral clearance),Total; [12],29 L/h
same,C12h,Total; [13],120 ng/mL
same,Cl (apparent oral clearance),Total; [13],33 L/h
same,C12h,Total; [14],150 ng/mL
same,Cl (apparent oral clearance),Total; [14],37 L/h
same,concentration at 12 h,[1]; [3],30 ng/mL
same,concentration at 12 h,[1]; [4],20 ng/mL
same,concentration at 12 h,[1]; [5],20 ng/mL
same,concentration at 12 h,[1]; [6],20 ng/mL
same,AUC(0-t),[1]; [3],500 ng·h/mL
same,AUC(0-t),[1]; [4],400 ng·h/mL
same,AUC(0-t),[1]; [6],300 ng·h/mL
same,Cmax,[1]; [3],80 ng/mL
same,Cmax,[1]; [4],60 ng/mL
same,Cmax,[1]; [5],50 ng/mL
same,Cmax,[1]; [6],50 ng/mL
same,Cl,[1]; [3],127 L/h
same,Cl,[1]; [4],169 L/h
same,Cl,[1]; [5],261 L/h
same,Cl,[1]; [6],306 L/h
same,bound to the blood plasma proteins,[2],98–99%
